Laboratory results taken from patent publication US20240415825A1, “COMPOUNDS FOR THE TREATMENT OF MALARIA” (FUNDACIÓ INSTITUT DE BIOENGINYERIA DE CATALUNYA, priority 2021, published 2024).
Where two headings read alike, the source gives them in different places.

Tests used:
[1] = Cytotoxicity (CC50) and in vitro therapeutic index; format: cell-based, human; conditions: human umbilical vein endothelial cells (HUVEC); human umbilical vein endothelial cell cultures
[2] = tested on: human umbilical vein endothelial cell cultures; assay: Cytotoxicity (CC50) and in vitro therapeutic index; format: cell-based
[3] = tested on: P. falciparum ring or trophozoite stage cultures; assay: Stage of growth inhibition analysis; format: cell-based, Plasmodium falciparum; conditions: added to ring stages at its IC80
Method: For stage of growth inhibition analysis, P. falciparum cultures were synchronized at ring or trophozoite stages by repeated treatment with 5% sorbitol or 70% Percoll, respectively. Half of each culture remained untreated and the other half was treated with the IC80 of AID-X-2020. At different time points, culture samples were stained with Giemsa and the number of rings, early and mature trophozoites and schizonts was counted by microscopic examination of at least 100 pRBCs for each sample. Pictures were taken with a Nikon Eclipse 50i microscope equipped with a DS-Fi1 camera (Nikon).

[4] = target: T1, Aβ40 (Homo sapiens, UniProt P05067); assay: In vitro Aβ40 aggregation (ThT fluorescence, TEM); format: biochemical; conditions: 25 μM Aβ40
T1 construct: Amyloid-β peptide fragment 1-40 (Aβ40); purchased GenScript
T1 sequence (P05067 672-711 limits assumed, species assumed): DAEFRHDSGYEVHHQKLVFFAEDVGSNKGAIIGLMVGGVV
Method: For the in vitro analysis of As peptide fragment 1-40 (Aβ40) aggregation, 1 mg of Aβ40 (GenScript) was dissolved in 500 μL of 1,1,1,3,3,3-hexafluoro-2-propanol (HFIP, Fluka) under vigorous stirring for 1 h and sonicated for 30 min in a sonication bath. Afterwards, the solution was stirred for 1 h and maintained at 4° C. for 30 min. Aliquots were prepared, HFIP was evaporated under a nitrogen stream for a few seconds and the peptide was stored at −20° C. […] The final sample always contained less than 5% DMSO to avoid interference of this solvent on Aβ40 amyloid fibril formation. Finally, ThT treatment was performed as described above.
25 μM ThT was added to each sample and fluorescence was measured by exciting samples at 440 nm and recording the emission from 465 nm to 600 nm. A blank measurement of each sample was done before adding ThT.
A carbon-coated copper grid was deposited on top of a 50-μL drop of each solution for 30 min. Then, the excess liquid was removed with filter paper and the grid was placed on top of a water drop for 30 s and finally negatively stained for 2 min with 20 μL of 2% uranyl acetate. Samples were observed using a JEM 1010 transmission electron microscope (JEOL Ltd., Japan). Images were acquired using a CCD Orius camera (Gatan, Inc., USA).

[5] = tested on: artemisinin-resistant P. falciparum strains (3D7 and Cam 3.11 with K13 mutations); assay: Growth inhibition, artemisinin-resistant strains; format: cell-based; conditions: Plasmodium falciparum, 3D7, read-out: IC50 in artemisinin-resistant strains
Source text: P. falciparum parasites of chloroquine-sensitive (3D7 strain) and chloroquine- and artemisinin-resistant strains were processed as described in section 1.1.3 of EXAMPLE 1.
In particular, the P. falciparum resistant strains were the following: (1) strain W2 MRA-157 (BEI Resources, managed by ATCC) which is chloroquine-resistant; (2) strains 3D7 harboring the K13 mutations associated to artemisinin resistance, either M5791 or R561H (both provided by Dr. David A. Fidock and referenced in Stokes, B. H. et al., 2021); (3) Cam 3.11 strain which is chloroquine and sulfadoxine/pyrimethamine-resistant; and (4) Cam 3.11 strain modified to carry K13 mutations associated to artemisinin-resistant strains, either R561H or R539T, therefore being multiresistant strains. All Cam 3.11 strains (3) and (4) were provided by Dr. David A. Fidock and are referenced in Straimer, J. et al., 2015 and Stokes, B. H. et al., 2021.
Then, the required amount of AID-X-2020 was added to each well at different concentrations (0.0001, 0.001, 0.01, 1 and 10 μM) and triplicates.

[6] = target: T2, preformed Aβ40 fibrils (Homo sapiens, UniProt P05067); assay: Disaggregation of preformed Aβ40 fibrils; format: biochemical; conditions: 24 h after fibril formation, ThT and TEM
T2 construct: Amyloid-β peptide fragment 1-40 (Aβ40); purchased GenScript
T2 sequence (P05067 672-711 limits assumed, species assumed): as above
Method: To test the effect of AID-X-2020 on already formed amyloid fibrils, Aβ40 DMSO solutions were diluted to 25 μM in PBS and incubated as above in order to allow fibril formation. Then, AID-X-2020 was added at different concentrations (0.1 μM AID-X-2020, 1 μM AID-X-2020 and 10 μM AID-X2020) and the mixture was incubated in the same conditions for another 24 h. The final samples always contained less than 5% DMSO to avoid interference of this solvent on Aβ40 amyloid fibril formation. Finally, ThT treatment and TEM analysis was performed as described in section 3.1 of EXAMPLE 3. The analysis of aggregation inhibition and disaggregation performed with aggregative peptides present in P. falciparum proteins were conducted in the same way.

[7] = tested on: P. falciparum cultures; assay: ThT analysis of protein aggregation in live P. falciparum cultures; format: cell-based, Plasmodium falciparum; conditions: 90 min with 90 nM, equal protein content
Method: After 90 min, 4 h and 30 h, a Percoll purification was done in order to isolate parasitized cells from uninfected RBCs. After Percoll purification, the pellets of late stage parasites and a control non-infected RBC suspension containing the same proportion of cells than the purified cultures were resuspended in 50 μl of lysis buffer (4.5 mg/ml NaCl in water supplemented with EDTA-free protease inhibitor cocktail, PIC, Hoffman-La Roche, Basel, Switzerland; 1 PIC tablet/10 ml water) and incubated overnight, at 4° C. under stirring, with the objective of releasing their inner content. After this time, lysed samples were spun down and the protein content in the supernatant was quantified with the bicinchoninic acid assay (Thermo Fisher Scientific), following the manufacturer's instructions. 30 μg of protein from each supernatant were further diluted with PBS to a final volume of 70 μl and plated on a 96-well black plate in triplicates. ThT fluorescence was measured as described above.

[8] = tested on: P. falciparum NF54-gexp02-Tom strain gametocytes; assay: microbe, parasite or virus in culture; format: cell-based; conditions: Plasmodium falciparum, NF54, 48 h
Method: Cultures of the P. falciparum NF54-gexp02-Tom strain (developed and authenticated by Portugaliza, H. P. et al., 2019 and kindly provided by Prof. Alfred Cortes), were maintained in standard conditions in RPMI medium supplemented with 0.5% Albumax II and 2 mM choline, synchronized in ring stages with sorbitol lysis, and diluted to 2% parasitemia. To trigger sexual conversion, choline was removed from the medium and cultures were maintained in the same conditions for 48 h after synchronization (cycle 0). In the next cycle (cycle 1), parasites were treated with 50 mM N-acetylglucosamine (GlcNac) in order to kill asexual parasites, and maintained in RPMI supplemented with 10% human serum. Medium was refreshed daily and GlcNac was kept during 4 days.
Controls of untreated parasites as well as of parasites treated with a lethal dose of chloroquine were prepared. Gametocytemia was monitored daily by light microscopy until the majority of parasites (˜90%) could be identified as stage V gametocytes. At that point, Giemsa smears of each well were prepared and mature gametocytes were manually counted (10,000 cells were counted for each replica by two investigators blinded to group assignment). […] Afterwards, the culture was treated for 48 h with the drugs and the gametocytemia determined as above.

## CCN(CC)c1ccc(/C=C/c2cc[n+](CCCCCCCCCC[n+]3ccc(/C=C/c4ccc(N(CC)CC)cc4)c(C)c3)cc2C)cc1 [AID-X-2020, 1,1′-(decane-1,10-diyl)bis{4-[(E)-4-(diethylamino)styryl]-3-methylpyridin-1-ium} dibromide]
[1]
  CC50: 3400 nM
[2]; 50% cytotoxic concentration (CC50)/IC50 in 3D7 strain
  Therapeutic index in vitro: 23.3
[2]; HUVEC CC50, text value
  therapeutic index (CC50/IC50): 37.8
[3]
  stage of growth arrest: arrested the life cycle of the pathogen at trophozoite stage
[4]
  inhibition of the aggregation of Aβ40: strong inhibitor
[5]
  IC50: 90 to 160 nM
[6]
  concentration disassembling preformed Aβ40 fibrils: > 90 nM
[7]
  ThT fluorescence of culture extracts: reduced emission spectrum
[8]; read-out: IC50 on early gametocytes
  IC50: 95 ± 3 nM
[8]; read-out: IC50 on mature stage V (late) gametocytes
  IC50: 103 ± 3 nM
